Laboratory results from PubChem BioAssay (NCI).
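A five-concentration, 48-hour dose response in 96-well plates underlies each endpoint, interpolated linearly between surrounding concentrations. GI50: concentration for 50% inhibition of growth. TGI denotes the concentration required for complete inhibition of growth.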

What was measured:
Test in all cases: NCI-60 cell line screen, 48 h
[1] = tested on: SNB-19 CNS
[2] = tested on: NCI/ADR-RES ovarian
[3] = tested on: DU-145 prostate
[4] = tested on: LOX IMVI melanoma
[5] = tested on: HCT-116 colon
[6] = tested on: SF-295 CNS
[7] = tested on: MDA-MB-231 breast
[8] = tested on: 786-0 renal
[9] = tested on: SR leukemia
[10] = tested on: SNB-75 CNS

Structure (SMILES) | GI50 [1] [µM] | TGI [1] [µM] | GI50 [2] [µM] | TGI [2] [µM] | GI50 [3] [µM] | TGI [3] [µM] | GI50 [4] [µM] | TGI [4] [µM] | GI50 [5] [µM] | TGI [5] [µM] | GI50 [6] [µM] | TGI [6] [µM] | GI50 [7] [µM] | TGI [7] [µM] | GI50 [8] [µM] | TGI [8] [µM] | TGI [9] [µM] | TGI [10] [µM] | GI50 [10] [µM] | GI50 [9] [µM]
COc1ccc(-c2n[nH]nc2-c2csc3ccccc23)cc1OC | 4.67 | 45.1 | 2.39 | 23.2 | 3.77 | > 100 | 3.04 | 15.7 | 2.84 | 15.3 | 2.33 | 11.7 | 3.21 | 35.5 | 3.26 | 22.6 | – | – | – | –
CC(=O)OC1CCn2nnc(COC(=O)NC(C)C)c21 (stereo unspecified) | – | > 100 | – | – | – | – | – | – | – | > 100 | – | > 100 | – | – | – | > 100 | > 100 | > 100 | – | –
Cc1ccc(NC(=O)/C(CC(=O)c2c[n+](=O)c3ccccc3n2O)=N\NC(=O)C[n+]2ccccc2)cc1 | – | > 100 | – | – | – | – | – | > 100 | – | > 100 | – | > 100 | – | – | – | > 100 | > 100 | > 100 | – | –
C=CC1CC12C(=O)C1OC2(C)C2C(=O)c3c(ccc4c3ccc3ccccc34)C(=O)C12 (stereo unspecified) | > 100 | > 100 | 74.9 | > 100 | – | – | – | – | 52.6 | > 100 | – | – | 39.1 | > 100 | 38.8 | > 100 | – | > 100 | > 100 | –
CC(c1ccc(Br)cc1)C(C(=O)O)C(=O)O (stereo unspecified) | – | > 100 | – | – | – | – | – | > 100 | – | > 100 | – | > 100 | – | – | – | > 100 | > 100 | > 100 | – | –
CC(=O)N1CC2Nc3ccccc3C2CC1CO (stereo unspecified) | – | > 100 | – | – | – | – | – | > 100 | – | > 100 | – | > 100 | – | – | – | > 100 | – | > 100 | – | –
O=C1/C(=C/c2ccccc2Cl)N=C(c2ccccc2)N1Cc1ccco1 | > 100 | > 100 | > 100 | > 100 | 69.2 | > 100 | – | – | 18.5 | > 100 | – | – | 19.7 | > 100 | 34.7 | > 100 | > 100 | > 100 | 50.3 | 26.2
N#Cc1ccccc1C#C/C=C\C#Cc1ccc(OCCCNC(=O)c2cc3ccccc3[nH]2)cc1 | 16.5 | 39.7 | 23.5 | > 100 | 19.4 | 78.9 | 11.5 | 23.7 | 14.8 | 39.6 | 16.1 | 34.6 | 13.3 | 28.1 | 16.1 | 40.5 | – | 42.6 | 17.9 | –
COc1ccc2c(c1)CC[C@@H]1[C@@H]2CC[C@@]2(C)[C@H]1CC1(CCCCC1)[C@@H]2O | 18 | 40.7 | 14.8 | 30.7 | 15.2 | 29.3 | 7.28 | 20.9 | 12.3 | 26.4 | 9.05 | 23.1 | 12.9 | 32.8 | 3.81 | 14.7 | – | 35.1 | 16.4 | –
